Test results: EP4671247A1, “SUBSTITUTED PYRAZOLOPYRIMIDINE COMPOUND AND PHARMACEUTICAL USE THEREOF” (Japan Tobacco Inc., priority 2023, dated 2024)

Target: T1, NLRP3 inflammasome (Homo sapiens, UniProt Q96P20)
T1 construct: host or cells: THP1-Null cells (PMA-differentiated, LPS-primed, nigericin-stimulated)
Experiment: Evaluation of NLRP3 inflammasome inhibitory activity (inhibition of IL-1β production in LPS/Nigericin-stimulated THP1-Null cells, AlphaLISA)
Format: cell-based
Settings: IC50, IL-1β production in THP1-Null cells; PMA, 1 µg/mL Lipopolysaccharides 3 hours, Nigericin 7.5 µmol/L 1.5 hours
Experimental: The NLRP3 inflammasome inhibitory activity of test compounds were evaluated on the basis of the inhibitory activity of the IL-1β production in THP1-Null cells (Product Number: thp-null, InvivoGen).
The supernatant of the culture was removed, and thereto was added media for assay (25 µL/well) containing 1 µg/mL Lipopolysaccharides (Product Number: L2654, Sigma-Aldrich (registered trademark)). […] The supernatant of the culture was removed. […] A solution containing a test compound (20 µL/well) was added to test compound-setting wells. […] The supernatant of the culture was cryonically stored (set at -20°C) until measurement of IL-1β.
The amount of IL-1β in the culture supernatant was quantitated with AlphaLISA (registered trademark) Human IL-1β Detection Kit (Product Number: AL220C, Perkin Elmer). Fluorescence intensity was measured with a microplate reader EnSpier (Model number: 2300-00J, Perkin Elmer) or EnSight (Model number: HH34000000, Perkin Elmer) according to procedure manuals attached thereto. Inhibition rates of the test compound-setting wells were calculated on the basis of 100% for the blank-setting wells and 0% for the control-setting wells.

T1 sequence (Q96P20 whole entry): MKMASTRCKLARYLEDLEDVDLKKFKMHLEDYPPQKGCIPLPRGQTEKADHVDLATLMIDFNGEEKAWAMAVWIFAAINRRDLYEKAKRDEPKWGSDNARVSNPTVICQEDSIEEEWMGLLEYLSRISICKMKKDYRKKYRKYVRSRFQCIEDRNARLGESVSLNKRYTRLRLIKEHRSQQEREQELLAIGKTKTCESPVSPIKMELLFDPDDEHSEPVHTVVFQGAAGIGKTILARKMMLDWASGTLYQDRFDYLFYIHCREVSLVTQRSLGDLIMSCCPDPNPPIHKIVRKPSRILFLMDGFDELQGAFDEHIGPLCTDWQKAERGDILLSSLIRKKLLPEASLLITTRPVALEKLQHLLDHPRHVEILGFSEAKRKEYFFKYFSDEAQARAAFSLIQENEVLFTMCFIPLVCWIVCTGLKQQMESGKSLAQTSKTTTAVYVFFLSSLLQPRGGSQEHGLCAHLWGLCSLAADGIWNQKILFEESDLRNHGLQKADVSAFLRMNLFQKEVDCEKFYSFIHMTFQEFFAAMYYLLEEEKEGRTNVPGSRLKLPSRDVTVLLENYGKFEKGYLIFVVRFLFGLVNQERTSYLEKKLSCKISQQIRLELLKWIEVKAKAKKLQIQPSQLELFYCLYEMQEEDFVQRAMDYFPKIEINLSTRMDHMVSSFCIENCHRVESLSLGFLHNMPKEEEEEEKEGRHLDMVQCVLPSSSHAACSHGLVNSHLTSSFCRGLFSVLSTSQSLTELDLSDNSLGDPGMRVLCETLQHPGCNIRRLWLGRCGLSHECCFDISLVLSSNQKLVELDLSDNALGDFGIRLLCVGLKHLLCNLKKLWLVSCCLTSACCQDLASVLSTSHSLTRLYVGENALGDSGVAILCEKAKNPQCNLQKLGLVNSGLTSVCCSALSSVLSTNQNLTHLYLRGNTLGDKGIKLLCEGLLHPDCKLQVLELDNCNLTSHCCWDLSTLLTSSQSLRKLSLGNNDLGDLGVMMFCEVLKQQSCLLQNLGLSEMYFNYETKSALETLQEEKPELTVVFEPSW

| Compound | IC50 |
| --- | --- |
| Cc1cc(Br)cc(C)c1-n1cc2c(=O)[nH]c(C3CC4CCN3CC4)nc2n1 (racemic) [Example 100] | 54 nM |
| Cc1cc(C2CC2)cc(C)c1-n1cc2c(=O)[nH]c(C3CC4CCN3CC4)nc2n1 (racemic) [Example 119] | 31 nM |
| Cc1cc(C2CC2)cc(C)c1-n1cc2c(=O)[nH]c([C@@H]3C[C@H]3C#N)nc2n1 (racemic) [Example 152] | 12 nM |

Same assay, conditions: IL-1β production in THP1-Null cells; PMA, 1 µg/mL Lipopolysaccharides 3 hours, Nigericin 7.5 µmol/L 1.5 hours

| Compound | IC50 |
| --- | --- |
| Cc1cc(C2CC2)cc(C)c1-n1cc2c(=O)[nH]c(C3CCOC3)nc2n1 (racemic) [Example 29] | 9 nM |
| Cc1cc(C2CC2)cc(C)c1-n1cc2c(=O)[nH]c(C(C)O)nc2n1 (racemic) [Example 123] | 23 nM |
| Cc1cc(C2CC2)cc(C)c1-n1cc2c(=O)[nH]c(C(O)C(F)F)nc2n1 (racemic) [Example 158] | 26 nM |
| Cc1cc(C(C)(F)F)cc(C)c1-n1cc2c(=O)[nH]c(C3CCOCCO3)nc2n1 (racemic) [Example 168] | 74 nM |
| Cc1cc(OC(F)F)cc(C)c1-n1cc2c(=O)[nH]c([C@@H]3C[C@H]3F)nc2n1 (racemic) [Example 171] | 24 nM |
| Cc1cc(C2CC2)cc(C)c1-n1cc2c(=O)[nH]c(C3CCOC3)nc2n1 (single isomer, unassigned) [Example 50] | 5 nM |
| Cc1cc(C2CC2)cc(C)c1-n1cc2c(=O)[nH]c(C3CCOC3)nc2n1 (single isomer, unassigned) [Example 51] | 24 nM |
| Cc1cc(C2CC2)cc(C)c1-n1cc2c(=O)[nH]c(C3(F)CCOC3)nc2n1 (single isomer, unassigned) [Example 78] | 33 nM |
| Cc1cc(C2CC2)cc(C)c1-n1cc2c(=O)[nH]c(C3(F)CCOC3)nc2n1 (single isomer, unassigned) [Example 79] | 75 nM |
| COC1CC(c2nc3nn(-c4c(C)cc(Br)cc4C)cc3c(=O)[nH]2)C1 (single isomer, unassigned) [Example 121] | 38 nM |
| COC1CC(c2nc3nn(-c4c(C)cc(Br)cc4C)cc3c(=O)[nH]2)C1 (single isomer, unassigned) [Example 122] | 61 nM |
| Cc1cc(C(C)(F)F)cc(C)c1-n1cc2c(=O)[nH]c(C3(F)CCOC3)nc2n1 (single isomer, unassigned) [Example 129] | 50 nM |

Same assay, conditions: IL-1β production in THP1-Null cells; PMA, 1 µg/mL Lipopolysaccharides 3 hours, Nigericin 7.5 µmol/L 1.5 hours; read-out: IC50

| Compound | IC50 |
| --- | --- |
| Cc1cc(Br)cc(C)c1-n1cc2c(=O)[nH]c(C3COCCO3)nc2n1 (racemic) [Example 28] | 190 nM |
| Cc1ccc(-n2cc3c(=O)[nH]c(C4CCCO4)nc3n2)c(C)c1 (racemic) [Example 31] | 790 nM |
| Cc1ccc(-n2cc3c(=O)[nH]c(C4CCS(=O)(=O)C4)nc3n2)c(C)c1 (racemic) [Example 32] | 270 nM |
| Cc1ccc(-n2cc3c(=O)[nH]c(C4CCCOC4)nc3n2)c(C)c1 (racemic) [Example 34] | 200 nM |
| Cc1ccc(-n2cc3c(=O)[nH]c(C4CCO4)nc3n2)c(C)c1 (racemic) [Example 35] | 2100 nM |
| Cc1cc(C2CC2)cc(C)c1-n1cc2c(=O)[nH]c(C3CCO3)nc2n1 (racemic) [Example 36] | 150 nM |
| Cc1ccc(-n2cc3c(=O)[nH]c(C4CCCCO4)nc3n2)c(C)c1 (racemic) [Example 40] | 430 nM |
| COC(C)c1nc2nn(-c3c(C)cc(C4CC4)cc3C)cc2c(=O)[nH]1 (racemic) [Example 41] | 93 nM |
| Cc1cc(Br)cc(C)c1-n1cc2c(=O)[nH]c(COC3CCCOC3)nc2n1 (racemic) [Example 56] | 350 nM |
| Cc1cc(C2CC2)cc(C)c1-n1cc2c(=O)[nH]c(COC3CCCOC3)nc2n1 (racemic) [Example 57] | 340 nM |
| Cc1cc(OC(F)F)cc(C)c1-n1cc2c(=O)[nH]c(C3CCOC3)nc2n1 (racemic) [Example 63] | 45 nM |
| COC1(c2nc3nn(-c4c(C)cc(Br)cc4C)cc3c(=O)[nH]2)CCOC1 (racemic) [Example 86] | 350 nM |
| Cc1cc(C2CC2)cc(C)c1-n1cc2c(=O)[nH]c(C3CC3F)nc2n1 (racemic) [Example 93] | 8 nM |
| Cc1cc(Br)cc(C)c1-n1cc2c(=O)[nH]c(CC3COCCO3)nc2n1 (racemic) [Example 113] | 140 nM |
| Cc1cc(C2CC2)cc(C)c1-n1cc2c(=O)[nH]c(C3CC3(F)F)nc2n1 (racemic) [Example 114] | 17 nM |
| Cc1cc(C2CC2)cc(C)c1-n1cc2c(=O)[nH]c(C34CCOCC3C4(F)F)nc2n1 (racemic) [Example 115] | 430 nM |
| Cc1cc(Br)cc(C)c1-n1cc2c(=O)[nH]c(C34CCC(CO3)C4)nc2n1 (racemic) [Example 117] | 240 nM |
| COCC1C(c2nc3nn(-c4c(C)cc(C5CC5)cc4C)cc3c(=O)[nH]2)C1(F)F (racemic) [Example 120] | 40 nM |
| Cc1cc(C2CC2)cc(C)c1-n1cc2c(=O)[nH]c(C3CC3CO)nc2n1 (racemic) [Example 124] | 8 nM |
| Cc1cc(C(C)(F)F)cc(C)c1-n1cc2c(=O)[nH]c(C3CC3(F)F)nc2n1 (racemic) [Example 125] | 24 nM |
| Cc1cc(Br)cc(C)c1-n1cc2c(=O)[nH]c(CC(O)C(F)(F)F)nc2n1 (racemic) [Example 126] | 24 nM |
| COC(Cc1nc2nn(-c3c(C)cc(Br)cc3C)cc2c(=O)[nH]1)C(F)(F)F (racemic) [Example 127] | 73 nM |
| Cc1cc(C2CC2)cc(C)c1-n1cc2c(=O)[nH]c(C(C)F)nc2n1 (racemic) [Example 128] | 44 nM |

| Compound | IC50 |
| --- | --- |
| Cc1cc(OC(F)F)cc(C)c1-n1cc2c(=O)[nH]c(C3CC3(F)F)nc2n1 (racemic) [Example 133] | 41 nM |
| CCC(O)c1nc2nn(-c3c(C)cc(C4CC4)cc3C)cc2c(=O)[nH]1 (racemic) [Example 134] | 24 nM |
| Cc1cc(Br)cc(C)c1-n1cc2c(=O)[nH]c(C(C)O)nc2n1 (racemic) [Example 137] | 24 nM |
| Cc1cc(Br)cc(C)c1-n1cc2c(=O)[nH]c(C(O)C(F)(F)F)nc2n1 (racemic) [Example 138] | 120 nM |
| Cc1cc(Br)cc(C)c1-n1cc2c(=O)[nH]c(C(O)C(F)F)nc2n1 (racemic) [Example 139] | 36 nM |
| Cc1cc(Br)cc(C)c1-n1cc2c(=O)[nH]c(C(O)C3CC3)nc2n1 (racemic) [Example 140] | 46 nM |
| Cc1cc(OC(F)F)cc(C)c1-n1cc2c(=O)[nH]c(C(C)O)nc2n1 (racemic) [Example 141, (RS)-2-{4-(difluoromethoxy)-2,6-dimethylphenyl}-6-(1-hydroxyethyl)-2,5-dihydro-4H-pyrazolo[3,4-d]pyrimidin-4-one] | 61 nM |
| Cc1cc(C(C)(F)F)cc(C)c1-n1cc2c(=O)[nH]c([C@H]3C[C@@H]3F)nc2n1 (racemic) [Example 142, 2-[4-(1,1-difluoroethyl)-2,6-dimethylphenyl]-6-[(1RS,2SR)-2-fluorocyclopropyl]-2,5-dihydro-4H-pyrazolo[3,4-d]pyrimidin-4-one] | 17 nM |
| COCC(O)Cc1nc2nn(-c3c(C)cc(C4CC4)cc3C)cc2c(=O)[nH]1 (racemic) [Example 143] | 86 nM |
| Cc1cc(C(C)(F)F)cc(C)c1-n1cc2c(=O)[nH]c(C(C)O)nc2n1 (racemic) [Example 144, (RS)-2-{4-(1,1-difluoroethyl)-2,6-dimethylphenyl}-6-(1-hydroxyethyl)-2,5-dihydro-4H-pyrazolo[3,4-d]pyrimidin-4-one] | 58 nM |
| Cc1cc(Br)cc(C)c1-n1cc2c(=O)[nH]c(C3CC3C(=O)N(C)C)nc2n1 (racemic) [Example 149] | 22 nM |
| Cc1cc(Br)cc(C)c1-n1cc2c(=O)[nH]c(C3CC3C(N)=O)nc2n1 (racemic) [Example 150] | 18 nM |
| Cc1cc(Br)cc(C)c1-n1cc2c(=O)[nH]c(C3CC3C#N)nc2n1 (racemic) [Example 151] | 17 nM |
| Cc1cc(Br)cc(C)c1-n1cc2c(=O)[nH]c(C3CCOCCO3)nc2n1 (racemic) [Example 160] | 37 nM |
| Cc1cc(C2CC2)cc(C)c1-n1cc2c(=O)[nH]c(C3CCOCCO3)nc2n1 (racemic) [Example 163, (RS)-2-(4-cyclopropyl-2,6-dimethylphenyl)-6-(1,4-dioxepan-5-yl)-2,5-dihydro-4H-pyrazolo[3,4-d]pyrimidin-4-one] | 23 nM |
| Cc1cc(OC(F)F)cc(C)c1-n1cc2c(=O)[nH]c(C(O)C(F)F)nc2n1 (racemic) [Example 167] | 230 nM |
| Cc1cc(Br)cc(C)c1-n1cc2c(=O)[nH]c(C3CC(F)(F)CCO3)nc2n1 (racemic) [Example 184] | 51 nM |
| Cc1cc(Br)cc(C)c1-n1cc2c(=O)[nH]c(C3CC(F)(F)CO3)nc2n1 (racemic) [Example 189] | 71 nM |
| Cc1cc(C2CC2)cc(C)c1-n1cc2c(=O)[nH]c(C3CC(F)(F)CO3)nc2n1 (racemic) [Example 190] | 41 nM |
| Cc1cc(Br)cc(C)c1-n1cc2c(=O)[nH]c(C3CCC(F)(F)CO3)nc2n1 (racemic) [Example 191] | 72 nM |
| Cc1cc(C2CC2)cc(C)c1-n1cc2c(=O)[nH]c(C3CC(F)(F)CCO3)nc2n1 (racemic) [Example 197] | 36 nM |
| Cc1cc(Br)cc(C)c1-n1cc2c(=O)[nH]c(C3CCOCC3O)nc2n1 (single isomer, unassigned) [Example 104] | 15 nM |
